Results taken from PubChem BioAssay (NCI).
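Cultured in 96-well plates, cells were exposed to test compound for 48 hours across five concentrations. Definition used: TGI = concentration required for complete inhibition of growth.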

Assays:
Assay in all cases: NCI-60 cell line screen, 48 h
SN12C renal = test system: SN12C renal
OVCAR-4 ovarian = test system: OVCAR-4 ovarian
NCI-H23 lung = test system: NCI-H23 lung
BT-549 breast = test system: BT-549 breast
SK-OV-3 ovarian = test system: SK-OV-3 ovarian
CCRF-CEM leukemia = test system: CCRF-CEM leukemia
UACC-257 melanoma = test system: UACC-257 melanoma
NCI/ADR-RES ovarian = test system: NCI/ADR-RES ovarian
MDA-MB-435 = test system: MDA-MB-435
UACC-62 melanoma = test system: UACC-62 melanoma
SNB-19 CNS = test system: SNB-19 CNS
OVCAR-8 ovarian = test system: OVCAR-8 ovarian
MALME-3M melanoma = test system: MALME-3M melanoma
KM12 colon = test system: KM12 colon
PC-3 prostate = test system: PC-3 prostate
HCT-116 colon = test system: HCT-116 colon
RXF 393 renal = test system: RXF 393 renal
MDA-N = test system: MDA-N
786-0 renal = test system: 786-0 renal
HCC-2998 colon = test system: HCC-2998 colon
OVCAR-3 ovarian = test system: OVCAR-3 ovarian
SK-MEL-28 melanoma = test system: SK-MEL-28 melanoma
CAKI-1 renal = test system: CAKI-1 renal
HL-60(TB) leukemia = test system: HL-60(TB) leukemia
SK-MEL-2 melanoma = test system: SK-MEL-2 melanoma
K-562 leukemia = test system: K-562 leukemia
A549 NSCLC = test system: A549 NSCLC
DU-145 prostate = test system: DU-145 prostate
HCT-15 colon = test system: HCT-15 colon
SK-MEL-5 melanoma = test system: SK-MEL-5 melanoma
HOP-92 NSCLC = test system: HOP-92 NSCLC
SW-620 colon = test system: SW-620 colon
MDA-MB-231 breast = test system: MDA-MB-231 breast
COLO 205 colon = test system: COLO 205 colon
SR leukemia = test system: SR leukemia
HS 578T breast = test system: HS 578T breast
IGROV1 ovarian = test system: IGROV1 ovarian
A498 renal = test system: A498 renal
SF-539 CNS = test system: SF-539 CNS
OVCAR-5 ovarian = test system: OVCAR-5 ovarian
NCI-H460 lung = test system: NCI-H460 lung
RPMI-8226 leukemia = test system: RPMI-8226 leukemia
HT29 colon = test system: HT29 colon
MOLT-4 leukemia = test system: MOLT-4 leukemia
MCF7 breast = test system: MCF7 breast
SF-295 CNS = test system: SF-295 CNS
LOX IMVI melanoma = test system: LOX IMVI melanoma
NCI-H226 lung = test system: NCI-H226 lung
T-47D breast = test system: T-47D breast
EKVX NSCLC = test system: EKVX NSCLC
TK-10 renal = test system: TK-10 renal
ACHN renal = test system: ACHN renal
M14 melanoma = test system: M14 melanoma
U251 CNS = test system: U251 CNS
SF-268 CNS = test system: SF-268 CNS
NCI-H522 lung = test system: NCI-H522 lung
HOP-62 NSCLC = test system: HOP-62 NSCLC
SNB-75 CNS = test system: SNB-75 CNS
UO-31 renal = test system: UO-31 renal

Structure (SMILES): O=C1/C(=C2\SCC(=O)N2c2ccccc2)SC(=S)N1c1ccccc1
- TGI (SN12C renal): 68.6 µM
- TGI (OVCAR-4 ovarian): 66.9 µM
- TGI (NCI-H23 lung): > 100 µM
- TGI (BT-549 breast): > 100 µM
- TGI (SK-OV-3 ovarian): 55.2 µM
- TGI (CCRF-CEM leukemia): > 100 µM
- TGI (UACC-257 melanoma): > 100 µM
- TGI (NCI/ADR-RES ovarian): 90.7 µM
- TGI (MDA-MB-435): > 100 µM
- TGI (UACC-62 melanoma): > 100 µM
- TGI (SNB-19 CNS): > 100 µM
- TGI (OVCAR-8 ovarian): > 100 µM
- TGI (MALME-3M melanoma): > 100 µM
- TGI (KM12 colon): > 100 µM
- TGI (PC-3 prostate): > 100 µM
- TGI (HCT-116 colon): > 100 µM
- TGI (RXF 393 renal): > 100 µM
- TGI (MDA-N): > 100 µM
- TGI (786-0 renal): > 100 µM
- TGI (HCC-2998 colon): 62.1 µM
- TGI (OVCAR-3 ovarian): 83.2 µM
- TGI (SK-MEL-28 melanoma): > 100 µM
- TGI (CAKI-1 renal): 57.1 µM
- TGI (HL-60(TB) leukemia): > 100 µM
- TGI (SK-MEL-2 melanoma): > 100 µM
- TGI (K-562 leukemia): > 100 µM
- TGI (A549 NSCLC): > 100 µM
- TGI (DU-145 prostate): > 100 µM
- TGI (HCT-15 colon): > 100 µM
- TGI (SK-MEL-5 melanoma): > 100 µM
- TGI (HOP-92 NSCLC): 82.7 µM
- TGI (SW-620 colon): > 100 µM
- TGI (MDA-MB-231 breast): 45.2 µM
- TGI (COLO 205 colon): > 100 µM
- TGI (SR leukemia): 29.6 µM
- TGI (HS 578T breast): > 100 µM
- TGI (IGROV1 ovarian): 52.7 µM
- TGI (A498 renal): > 100 µM
- TGI (SF-539 CNS): 85.4 µM
- TGI (OVCAR-5 ovarian): > 100 µM
- TGI (NCI-H460 lung): > 100 µM
- TGI (RPMI-8226 leukemia): > 100 µM
- TGI (HT29 colon): > 100 µM
- TGI (MOLT-4 leukemia): 51.7 µM
- TGI (MCF7 breast): > 100 µM
- TGI (SF-295 CNS): 82.7 µM
- TGI (LOX IMVI melanoma): > 100 µM
- TGI (NCI-H226 lung): 48.4 µM
- TGI (T-47D breast): > 100 µM
- TGI (EKVX NSCLC): 82 µM
- TGI (TK-10 renal): > 100 µM
- TGI (ACHN renal): 97.7 µM
- TGI (M14 melanoma): > 100 µM
- TGI (U251 CNS): > 100 µM
- TGI (SF-268 CNS): > 100 µM

Structure (SMILES): OCCNc1nc2c(N3CCCC3)nc(N3CCNCC3)nc2nc1NCc1ccccc1
- TGI (SN12C renal): 30.7 µM
- TGI (OVCAR-4 ovarian): 32.2 µM
- TGI (NCI-H23 lung): 34.2 µM
- TGI (BT-549 breast): 30.8 µM
- TGI (SK-OV-3 ovarian): 31.1 µM
- TGI (CCRF-CEM leukemia): 30 µM
- TGI (UACC-257 melanoma): 33.5 µM
- TGI (NCI/ADR-RES ovarian): > 100 µM
- TGI (MDA-MB-435): 25.1 µM
- TGI (UACC-62 melanoma): 31.3 µM
- TGI (SNB-19 CNS): 29.4 µM
- TGI (OVCAR-8 ovarian): 30.5 µM
- TGI (MALME-3M melanoma): 35.9 µM
- TGI (KM12 colon): 25.5 µM
- TGI (NCI-H522 lung): 30.7 µM
- TGI (PC-3 prostate): 30.7 µM
- TGI (HOP-62 NSCLC): 18.1 µM
- TGI (HCT-116 colon): 21.9 µM
- TGI (RXF 393 renal): 24.7 µM
- TGI (MDA-N): 24.7 µM
- TGI (786-0 renal): 28 µM
- TGI (HCC-2998 colon): 29.1 µM
- TGI (OVCAR-3 ovarian): 18.6 µM
- TGI (SK-MEL-28 melanoma): 32.5 µM
- TGI (CAKI-1 renal): 31.4 µM
- TGI (HL-60(TB) leukemia): 32.8 µM
- TGI (SK-MEL-2 melanoma): 28.7 µM
- TGI (K-562 leukemia): 30.1 µM
- TGI (A549 NSCLC): 31.4 µM
- TGI (DU-145 prostate): 24.2 µM
- TGI (HCT-15 colon): 32.2 µM
- TGI (SK-MEL-5 melanoma): 26.1 µM
- TGI (HOP-92 NSCLC): 21.8 µM
- TGI (SW-620 colon): 42.4 µM
- TGI (MDA-MB-231 breast): 29.4 µM
- TGI (COLO 205 colon): 24.9 µM
- TGI (SR leukemia): 32.7 µM
- TGI (HS 578T breast): 51.4 µM
- TGI (IGROV1 ovarian): 25.5 µM
- TGI (SNB-75 CNS): 26.8 µM
- TGI (UO-31 renal): 28.7 µM
- TGI (SF-539 CNS): 32 µM
- TGI (OVCAR-5 ovarian): 24.7 µM
- TGI (NCI-H460 lung): 29.9 µM
- TGI (RPMI-8226 leukemia): 38.4 µM
- TGI (HT29 colon): 21.7 µM
- TGI (MOLT-4 leukemia): 33.3 µM
- TGI (MCF7 breast): 28.3 µM
- TGI (SF-295 CNS): 32.7 µM
- TGI (LOX IMVI melanoma): 29.1 µM
- TGI (NCI-H226 lung): 35.2 µM
- TGI (T-47D breast): 30.8 µM
- TGI (EKVX NSCLC): 26.9 µM
- TGI (TK-10 renal): 28.7 µM
- TGI (ACHN renal): 28.9 µM
- TGI (M14 melanoma): 29.4 µM
- TGI (U251 CNS): 23.3 µM
- TGI (SF-268 CNS): 34.1 µM

Structure (SMILES): CC12CCC(C1)C(C)(C)C2OC(=O)c1ccccc1C(=O)O (stereo not drawn)
- TGI (SN12C renal): > 100 µM
- TGI (OVCAR-4 ovarian): > 100 µM
- TGI (NCI-H23 lung): > 100 µM
- TGI (BT-549 breast): > 100 µM
- TGI (SK-OV-3 ovarian): > 100 µM
- TGI (UACC-257 melanoma): > 100 µM
- TGI (NCI/ADR-RES ovarian): > 100 µM
- TGI (MDA-MB-435): > 100 µM
- TGI (UACC-62 melanoma): > 100 µM
- TGI (SNB-19 CNS): > 100 µM
- TGI (OVCAR-8 ovarian): > 100 µM
- TGI (MALME-3M melanoma): > 100 µM
- TGI (KM12 colon): > 100 µM
- TGI (NCI-H522 lung): > 100 µM
- TGI (PC-3 prostate): > 100 µM
- TGI (HOP-62 NSCLC): > 100 µM
- TGI (HCT-116 colon): > 100 µM
- TGI (RXF 393 renal): > 100 µM
- TGI (MDA-N): > 100 µM
- TGI (786-0 renal): > 100 µM
- TGI (HCC-2998 colon): > 100 µM
- TGI (SK-MEL-28 melanoma): > 100 µM
- TGI (CAKI-1 renal): > 100 µM
- TGI (HL-60(TB) leukemia): > 100 µM
- TGI (SK-MEL-2 melanoma): > 100 µM
- TGI (K-562 leukemia): > 100 µM
- TGI (A549 NSCLC): > 100 µM
- TGI (DU-145 prostate): > 100 µM
- TGI (HCT-15 colon): > 100 µM
- TGI (SK-MEL-5 melanoma): > 100 µM
- TGI (HOP-92 NSCLC): > 100 µM
- TGI (SW-620 colon): > 100 µM
- TGI (MDA-MB-231 breast): > 100 µM
- TGI (COLO 205 colon): > 100 µM
- TGI (HS 578T breast): > 100 µM
- TGI (IGROV1 ovarian): > 100 µM
- TGI (SNB-75 CNS): > 100 µM
- TGI (UO-31 renal): > 100 µM
- TGI (A498 renal): > 100 µM
- TGI (OVCAR-5 ovarian): > 100 µM
- TGI (NCI-H460 lung): > 100 µM
- TGI (RPMI-8226 leukemia): > 100 µM
- TGI (HT29 colon): > 100 µM
- TGI (MOLT-4 leukemia): > 100 µM
- TGI (MCF7 breast): > 100 µM
- TGI (SF-295 CNS): > 100 µM
- TGI (LOX IMVI melanoma): > 100 µM
- TGI (NCI-H226 lung): > 100 µM
- TGI (T-47D breast): > 100 µM
- TGI (EKVX NSCLC): > 100 µM
- TGI (TK-10 renal): > 100 µM
- TGI (ACHN renal): > 100 µM
- TGI (M14 melanoma): > 100 µM
- TGI (U251 CNS): > 100 µM
- TGI (SF-268 CNS): > 100 µM
